According to patent publication US12686668B2, “Leukotriene synthesis inhibitors” (Naegis Pharmaceuticals Inc., priority 2019, dated 2026):

Assays:
[1] = molecular target: T1, recombinant human leukotriene A4 hydrolase enzyme (Homo sapiens, UniProt P09960); experiment: Amino-peptidase assay, alanine-4-nitroanalide; assay type: biochemical; conditions: negative values = augmented peptidase activity, read-out: % Inhibition aminopeptidase-Alanine-4-nitroanalide activity of LTA4H (3 μM)
T1 construct: purchased Cayman Chemical 10007817
T1 sequence (P09960 1-611): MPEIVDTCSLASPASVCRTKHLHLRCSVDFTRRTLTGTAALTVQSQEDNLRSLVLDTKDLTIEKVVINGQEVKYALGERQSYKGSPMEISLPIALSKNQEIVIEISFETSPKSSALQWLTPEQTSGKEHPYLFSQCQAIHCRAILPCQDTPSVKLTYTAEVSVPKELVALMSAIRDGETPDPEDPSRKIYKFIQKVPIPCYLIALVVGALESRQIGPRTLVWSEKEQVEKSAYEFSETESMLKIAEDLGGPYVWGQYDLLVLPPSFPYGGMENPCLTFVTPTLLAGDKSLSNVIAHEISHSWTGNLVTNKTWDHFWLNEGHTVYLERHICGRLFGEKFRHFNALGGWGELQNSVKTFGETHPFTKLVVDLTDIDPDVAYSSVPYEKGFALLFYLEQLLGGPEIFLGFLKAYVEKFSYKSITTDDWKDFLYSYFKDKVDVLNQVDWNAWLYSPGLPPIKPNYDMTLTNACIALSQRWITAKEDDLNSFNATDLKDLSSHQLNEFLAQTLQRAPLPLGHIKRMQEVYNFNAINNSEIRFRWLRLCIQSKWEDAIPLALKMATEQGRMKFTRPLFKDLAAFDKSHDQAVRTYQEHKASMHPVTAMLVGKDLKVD
Outline: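 Compounds pre-incubated in the dark with recombinant human LTA4H (0.5 μg) in 50 mM Tris-HCl, 100 mM KCl; reaction started with alanine-4-nitroanilide (6 mM solution). Aminopeptidase rate followed as A405 from 4-nitroaniline, referenced to a standard; inhibition calculated versus controls, with negative values indicating augmented activity.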

[2] = test system: LPS-induced neutrophil infiltration into the lung; experiment: Lipopolysaccharide (LPS) mouse lung inflammation model; assay type: in vivo, CD-1 mice; conditions: 10 mg/kg oral, 1 hr before and 2 hrs after LPS 2.5 mg/kg intratracheal, BAL 6 hr post-LPS
Experimental: In this model, LPS was instilled into the lungs of mice to induce a neutrophilia in the lung tissue. The neutrophilia can be measured in the BAL fluid during lung lavage at various times after challenge with LPS. The neutrophilia develops with a significant increase in cells in the BAL after 6 hrs and achieves a maximum response by 24 hrs. CD-1 mice received lipopolysaccharide (LPS) 2.5 mg/kg in phosphate buffered saline (PBS) or PBS in a volume of 50 μL by intracheal instillation into the lung. The animals were lightly anesthetized using isofluorane to enable application of the LPS. When anesthetized the animals were placed on a board at an angle of 45°. The tongue was rolled to one side and LPS was administered directly into the trachea in a volume of 50 μL. The animal remained in position for 1-2 minutes to ensure the LPS remained in the lung. At the end of the LPS challenge time, animals were euthanized by an overdose of isofluorane. The trachea was exposed and the lungs were intubated using a 21 G catheter tube. The lungs were lavaged with 2×1 mL of PBS at room temperature. […] The differential cell counts were determined using an automated cell counter (Abraxia) set to measure mouse cells. Cell concentration of the resuspended sample was expressed as total cells recovered in the total volume of recovered BAL. […]

[3] = molecular target: T1, recombinant human leukotriene A4 hydrolase enzyme; experiment: Amino-peptidase assay, PGP; assay type: biochemical; conditions: concentration not given
Experimental: A series of compound concentrations were pre-incubated with 50 ng of recombinant human leukotriene A4 hydrolase enzyme (Cayman Chemical, 10007817) in 50 L assay buffer (50 mM Tris-HCl, 100 mM KCl). The reaction was stimulated by adding 50 L 1 mM proline-glycine-proline (Bachem, H-7284) and incubated for 30 minutes at 37° C. The reaction was stopped with the addition of 150 μL of glacial acetic acid. The amount of free proline released from the peptide was detected through a reaction with ninhydrin. 150 μL of 25 mg/mL ninhydrin (BDH, B10132) in 60:40 acetic acid/water was added to each sample, and boiled for 30 minutes at 100° C. and once samples had cooled to room temperature, 350 μL of toluene was added to extract the ninhydrin reaction product. The amount of free proline was determined by comparing the absorbance at 520 nm to the L-proline (Sigma Aldrich, 81709) reference standard. Inhibition of free proline production was calculated based on control samples.

| inhibition at 3 µM [1] | % Inhibition aminopeptidase-PGP activity of LTA4H [3] | SMILES | Effect on LPS-induced neutrophil infiltration into the lung (BAL) [2] |
| --- | --- | --- | --- |
| -50 to 100% | – | CCC(O)(CCc1ccc(Oc2nc3c(SC)cccc3s2)c(OC)c1)C(F)(F)F (stereo not shown) [Compound 104, 1-{3-methoxy-4-[(4-methylsulfanyl-1,3-benzothiazol-2-yl)oxy]phenyl}-3-(trifluoromethyl)pentan-3-ol] | inhibitory effect |
| > 75% | >75% | CC(O)(CCc1ccc(OCc2ccc3ccccc3n2)cc1)C(F)(F)F (stereo not shown) [Compound 183, 1,1,1-trifluoro-2-methyl-4-[4-(quinolin-2-ylmethoxy)phenyl]butan-2-ol] | – |
